US12404283B2, “c-MYC mRNA translation modulators and uses thereof in the treatment of cancer” (Anima Biotech Inc., priority 2022, dated 2025)

Test system: c-Myc
Test: c-Myc immunofluorescence assay
Type: cell-based, human
Conditions: A549 cells, 24 hours treatment, anti-c-Myc immunofluorescence
Method in brief: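 A549 cells grown 48 h, exposed 24 h to rising compound concentrations, then fixed, permeabilised and stained for c-Myc plus DAPI. Nuclear-segmented c-Myc fluorescence quantified by high-content imaging at 20×; EC50 from logistic dose–response fits.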

SMILES	Myc Efficacy (−LogEC50)
CNC(=O)c1ccc(-c2cn3c(n2)sc2cc(C(=O)NCC(C)(C)N4CCOCC4)ccc23)cc1 [compound 244, N-(2-methyl-2-morpholinopropyl)-2-(4-(methylcarbamoyl)phenyl) benzo[d]imidazo[2,1-b] thiazole-7-carboxamide]	− (− ≤3)
CNC(=O)c1ccc(-c2cn3c(n2)sc2cc(C(=O)N[C@H]4C[C@@H](OC)C4)ccc23)cc1 [compound 245, N-((1s,3s)-3-methoxycyclobutyl)-2-(4-(methylcarbamoyl)phenyl) benzo[d]imidazo[2,1-b] thiazole-7-carboxamide]	− (− ≤3)
CNC(=O)c1ccc(-c2cn3c(n2)sc2cc(C(=O)N[C@H]4C[C@@H](NC)C4)ccc23)cc1 [compound 246, N-((1s,3s)-3-(methylamino)cyclobutyl)-2-(4-(methylcarbamoyl)phenyl) benzo[d]imidazo[2,1-b] thiazole-7-carboxamide]	+ (+ >3 and <5)
CNC(=O)c1ccc(-c2cn3c(n2)sc2cc(C(=O)N[C@H]4C[C@H](NC)C4)ccc23)cc1 [compound 247, N-((1r,3r)-3-(methylamino)cyclobutyl)-2-(4-(methylcarbamoyl)phenyl) benzo[d]imidazo[2,1-b] thiazole-7-carboxamide]	− (− ≤3)
Cc1cccc(-c2cn3c(n2)sc2cc(C(=O)NCCCN4CC5CC4CN5C)ccc23)c1 (stereo not shown) [compound 248, N-(3-(5-methyl-2,5-diazabicyclo[2.2.1]heptan-2-yl)propyl)-2-(m-tolyl)benzo[d]imidazo[2,1-b]thiazole-7-carboxamide]	+ (+ >3 and <5)
CNC(=O)c1ccc(-c2cn3c(n2)sc2cc(C(=O)NCCCN4CC5CC4CN5C)ccc23)cc1 (stereo not shown) [compound 249, N-(3-(5-methyl-2,5-diazabicyclo[2.2.1]heptan-2-yl)propyl)-2-(4-(methylcarbamoyl)phenyl) benzo[d]imidazo[2,1-b]thiazole-7-carboxamide]	− (− ≤3)
CNC(=O)c1ccc(-c2cn3c(n2)sc2cc(C(=O)N4CCN(CC(N)=O)CC4)ccc23)cc1 [compound 250, 4-(7-(4-(2-amino-2-oxoethyl)piperazine-1-carbonyl)benzo[d]imidazo [2,1-b]thiazol-2-yl)-N-methylbenzamide]	+ (+ >3 and <5)
CNC(=O)c1ccc(-c2cn3c(n2)sc2cc(C(=O)NCC4(N)CC4)ccc23)cc1 [compound 251, N-((1-aminocyclopropyl)methyl)-2-(4-(methylcarbamoyl)phenyl) benzo[d]imidazo[2,1-b]thiazole-7-carboxamide]	− (− ≤3)
CNC(=O)c1ccc(-c2cn3c(n2)sc2cc(C(=O)NCC4CC(=O)N(C)C4)ccc23)cc1 (stereo not shown) [compound 252, N-((1-methyl-5-oxopyrrolidin-3-yl)methyl)-2-(4-(methylcarbamoyl)phenyl) benzo[d]imidazo[2,1-b]thiazole-7-carboxamide]	+ (+ >3 and <5)
CNC(=O)c1ccc(-c2cn3c(n2)sc2cc(C(=O)N[C@H]4[C@@H]5CNC[C@@H]54)ccc23)cc1 [compound 253, N-((1R,5S,6s)-3-azabicyclo[3.1.0]hexan-6-yl)-2-(4-(methylcarbamoyl)phenyl) benzo[d]imidazo[2,1-b]thiazole-7-carboxamide]	+ (+ >3 and <5)
CNC(=O)c1ccc(-c2cn3c(n2)sc2cc(C(=O)NCC4CCC(=O)N4C)ccc23)cc1 (stereo not shown) [compound 254, N-((1-methyl-5-oxopyrrolidin-2-yl)methyl) 2-(4-(methylcarbamoyl)phenyl) benzo[d]imidazo[2,1-b]thiazole-7-carboxamide]	+ (+ >3 and <5)
CNC(=O)c1ccc(-c2cn3c(n2)sc2cc(C(=O)NCC(=O)NCC(F)(F)F)ccc23)cc1 [compound 255, 2-(4-(methylcarbamoyl)phenyl)-N-(2-oxo-2-((2,2,2-trifluoroethyl)amino)ethyl) benzo[d]imidazo[2,1-b]thiazole-7-carboxamide]	− (− ≤3)
CNC(=O)c1ccc(-c2cn3c(n2)sc2cc(C(=O)NC[C@H](O)c4ccccc4)ccc23)cc1 [compound 256, (R)-N-(2-hydroxy-2-phenylethyl)-2-(4-(methylcarbamoyl)phenyl) benzo[d]imidazo[2,1-b]thiazole-7-carboxamide]	− (− ≤3)
CNC(=O)c1ccc(-c2cn3c(n2)sc2cc(C(=O)NCCC4CCCN4C)ccc23)cc1 (stereo not shown) [compound 257, 2-(4-(methylcarbamoyl)phenyl)-N-(2-(1-methylpyrrolidin-2-yl)ethyl)benzo[d]imidazo [2,1-b]thiazole-7-carboxamide]	++ (++ ≥5 and <6)
CNC(=O)c1ccc(-c2cn3c(n2)sc2cc(C(=O)NC4CC(O)C4(C)C)ccc23)cc1 (stereo not shown) [compound 258, N-(3-hydroxy-2,2-dimethylcyclobutyl)-2-(4-(methylcarbamoyl)phenyl) benzo[d]imidazo[2,1-b]thiazole-7-carboxamide]	+ (+ >3 and <5)
CNC(=O)c1ccc(-c2cn3c(n2)sc2cc(C(=O)NCC4CC4(F)F)ccc23)cc1 (stereo not shown) [compound 259, N-((2,2-difluorocyclopropyl)methyl)-2-(4-(methylcarbamoyl)phenyl) benzo[d]imidazo[2,1-b]thiazole-7-carboxamide]	+ (+ >3 and <5)

SMILES	Myc Efficacy (−LogEC50)
CNC(=O)c1ccc(-c2cn3c(n2)sc2cc(C(=O)NCCC4(O)CCCC4)ccc23)cc1 [compound 260, N-(2-(1-hydroxycyclopentyl)ethyl)-2-(4-(methylcarbamoyl)phenyl) benzo[d]imidazo[2,1-b]thiazole-7-carboxamide]	− (− ≤3)
CNC(=O)c1ccc(-c2cn3c(n2)sc2cc(C(=O)NCC4(C)CC4)ccc23)cc1 [compound 261, 2-(4-(methylcarbamoyl)phenyl) N-((1-methylcyclopropyl)methyl) benzo[d]imidazo[2,1-b]thiazole-7-carboxamide]	− (− ≤3)
CNC(=O)c1ccc(-c2cn3c(n2)sc2cc(C(=O)NCCN4CCCCC4C)ccc23)cc1 (stereo not shown) [compound 262, 2-(4-(methylcarbamoyl)phenyl) N-(2-(2-methylpiperidin-1-yl)ethyl)benzo[d]imidazo [2,1-b]thiazole-7-carboxamide]	+ (+ >3 and <5)
CNC(=O)c1ccc(-c2cn3c(n2)sc2cc(C(=O)N[C@H]4c5ccccc5C[C@H]4O)ccc23)cc1 [compound 263, N-((1S,2R)-2-hydroxy-2,3-dihydro-1H-inden-1-yl)-2-(4-(methylcarbamoyl)phenyl) benzo[d]imidazo[2,1-b]thiazole-7-carboxamide]	− (− ≤3)
CCCN1CCC(NC(=O)c2ccc3c(c2)sc2nc(-c4ccc(C(=O)NC)cc4)cn23)CC1 [compound 264, 2-(4-(methylcarbamoyl)phenyl)-N-(1-propylpiperidin-4-yl)benzo[d]imidazo[2,1-b]thiazole-7-carboxamide]	+++ (+++ ≥6)
Cc1cccc(-c2cn3c(n2)sc2cc(NC(=O)N4CCNCC4)ccc23)c1 [compound 265, N-(2-(m-tolyl)benzo[d]imidazo[2,1-b]thiazol-7-yl)piperazine-1-carboxamide]	+ (+ >3 and <5)
CCN(CC)CCCC(=O)Nc1ccc2c(c1)sc1nc(-c3cccc(C)c3)cn12 [compound 266, 4-(diethylamino)-N-(2-(m-tolyl)benzo[d]imidazo[2,1-b]thiazol-7-yl)butanamide]	+ (+ >3 and <5)
CCN(CC)CCNC(=O)Nc1ccc2c(c1)sc1nc(-c3cccc(C)c3)cn12 [compound 267, 1-(2-(diethylamino)ethyl)-3-(2-(m-tolyl)benzo[d]imidazo[2,1-b]thiazol-7-yl)urea]	+ (+ >3 and <5)
CCN(CC)CCCNC(=O)c1ccc2c(c1)sc1nc(-c3ccc(-c4ncc[nH]4)cc3)cn12 [compound 268, 2-(4-(1H-imidazol-2-yl)phenyl)-N-(3-(diethylamino)propyl) benzo[d]imidazo[2,1-b] thiazole-7-carboxamide]	+ (+ >3 and <5)
CNC(=O)c1ccc(-c2cn3c(n2)sc2cc(C(=O)NC4CC(N(C)C)C4)ccc23)cc1 (stereo not shown) [compound 269, N-(3-(dimethylamino)cyclobutyl)-2-(4-(methylcarbamoyl)phenyl) benzo[d]imidazo[2,1-b]thiazole-7-carboxamide]	+ (+ >3 and <5)
CNC(=O)c1ccc(-c2cn3c(n2)sc2cc(C(=O)NC4CCCC(N)C4)ccc23)cc1 (stereo not shown) [compound 270, N-(3-aminocyclohexyl)-2-(4-(methylcarbamoyl)phenyl) benzo[d]imidazo[2,1-b]thiazole-7-carboxamide]	+ (+ >3 and <5)
CNC(=O)c1ccc(-c2cn3c(n2)sc2cc(C(=O)NCCCN4CCCC4CO)ccc23)cc1 (stereo not shown) [compound 271, N-(3-(2-(hydroxymethyl)pyrrolidin-1-yl)propyl)-2-(4-(methylcarbamoyl)phenyl) benzo[d]imidazo[2,1-b]thiazole-7-carboxamide]	+ (+ >3 and <5)
CNC(=O)c1ccc(-c2cn3c(n2)sc2cc(C(=O)NCC4CC5(CNC5)C4)ccc23)cc1 [compound 272, N-((2-azaspiro[3.3]heptan-6-yl)methyl)-2-(4-(methylcarbamoyl)phenyl) benzo[d]imidazo[2,1-b]thiazole-7-carboxamide]	− (− ≤3)
CNC(=O)c1ccc(-c2cn3c(n2)sc2cc(C(=O)NC[C@H]4CC[C@H](O)CC4)ccc23)cc1 [compound 273, N-(((1r,4r)-4-hydroxycyclohexyl)methyl)-2-(4-(methylcarbamoyl)phenyl) benzo[d]imidazo[2,1-b]thiazole-7-carboxamide]	− (− ≤3)
CNC(=O)c1ccc(-c2cn3c(n2)sc2cc(C(=O)N[C@H](C)C4CC4)ccc23)cc1 [compound 274, (R)-N-(1-cyclopropylethyl)-2-(4-(methylcarbamoyl)phenyl) benzo[d]imidazo[2,1-b]thiazole-7-carboxamide]	+ (+ >3 and <5)
